Experimental data taken from patent US20240124460A1, “METHODS AND COMPOSITIONS FOR TARGETED PROTEIN DEGRADATION” (Ranok Therapeutics (Hangzhou) Co. Ltd., priority 2020, published 2024).

Columns and labels:
[1] = system: U-87 MG human glioblastoma; experiment: U87 MG CCK-8 proliferation assay; assay type: cell-based; details: Homo sapiens, U-87 MG, 72 h, U-87 MG cells, read-out: U87MG CCK-8
In short: (§1)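 Inhibition is derived from CCK-8 absorbance of compound-treated cells relative to DMSO-treated cells, after subtracting a cell-free medium/DMSO background. Test concentrations span 20 μM down to 1.02 nM in 3-fold steps, and lines are cultured as ATCC recommends.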

HSP90α protein = target: T1, HSP90α protein (Homo sapiens, UniProt P07900); experiment: HSP90α-binding FP (FITC) assay; details: FP competition with FITC-geldanamycin
T1 construct: purchased BPS Bioscience #50298
Procedure: Binding of test compounds to HSP90α protein was measured by fluorescent polarization (FP) using the HSP90α (N-terminal) Assay Kit (BPS Bioscience, #50298), following the manufacturer's instructions, except as noted. Fluorescently labeled HSP90-binding compounds, either the provided FITC-geldanamycin (5 nM final concentration) or RNK04010, a triazolone-based HSP90 binding small molecule labeled with BODIPY through a piperazine-phenyl linker (5 nM final concentration) were employed. A 2.5-fold serial dilution of each test compound ranging from 20 μM to 5.2 nM was assayed for binding to HSP90α. After the final step of adding HSP90α protein to each assay well, plates were mixed by brief shaking, incubated at 25° C. for 120 min for FITC-geldanamycin or 300 min for RNK04010, and fluorescence was measured using a PerkinElmer EnVision Plate Reader.

[2] = system: MV-4-11 human acute myeloid leukemia; experiment: MV-4-11 CCK-8 proliferation assay; assay type: cell-based; details: Homo sapiens, MV4-11; MV-4-11 cells, 72 hr
In short: as §1

ERBB2 = ERBB2 (HER2) flow cytometry protein degradation assay in BT-474 cells; assay type: cell-based, human; details: DC50, BT-474 cells, 24 hr
In short: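 BT-474 cells trypsinised after compound treatment and stained with PE-conjugated anti-ERBB2 antibody, 30 min at 25° C in the dark, then fixed in 1% paraformaldehyde for flow cytometry. % inhibition = 100−(D−B)/(S−B)*100, using treated, untreated-stained and unstained cell fluorescence.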

SMILES	EC50 [1] [µM]	IC50 (HSP90α protein) [µM]	EC50 [2] [µM]	ERBB2 degradation (ERBB2)
CCOc1cc(N2CCC(C(=O)N3CCC(CN4CCN(C(=O)c5ccc(-n6c(O)nnc6-c6cc(C(C)C)c(O)cc6O)cc5)CC4)CC3)CC2)ccc1Nc1ncc2c(n1)N(C)c1ccccc1C(=O)N2C [Compound 126, 2-((4-(4-(4-((4-(4-(3-(2,4-dihydroxy-5-isopropylphenyl)-5-hydroxy-4H-1,2,4-triazol-4-yl)benzoyl)piperazin-1-yl)methyl)piperidine-1-carbonyl)piperidin-1-yl)-2-ethoxyphenyl)amino)-5,11-dimethyl-5,11-dihydro-6H-benzo[e]pyrimido[5,4-b][1,4]diazepin-6-one]	0.1 to 1	0.1 to 1	< 0.1	–
CCOc1cc(N2CCC(OCC(=O)N3CCN(Cc4ccc(-n5c(O)nnc5-c5cc(C(C)C)c(O)cc5O)cc4)CC3)CC2)ccc1Nc1ncc2c(n1)N(C)c1ccccc1C(=O)N2C [Compound 001, 2-((4-(4-(2-(4-(4-(3-(2,4-dihydroxy-5-isopropylphenyl)-5-hydroxy-4H-1,2,4-triazol-4-yl)benzyl)piperazin-1-yl)-2-oxoethoxy)piperidin-1-yl)-2-ethoxyphenyl)amino)-5,11-dimethyl-5H-benzo[e]pyrimido[5,4-b][1,4]diazepin-6(11H)-one]	> 1	< 0.1	0.1 to 1	C (DC50 > 1000 nM)
CCOc1cc(N2CCC(C(=O)N3CCC(CN4CCN(C(=O)c5ccc(-n6c(O)nnc6-c6cc(C(C)C)c(O)cc6O)cc5)CC4)CC3)CC2)ccc1Nc1ncc2c(n1)N(S(C)(=O)=O)c1ccccc1C(=O)N2C [Compound 127, 2-((4-(4-(4-((4-(4-(3-(2,4-dihydroxy-5-isopropylphenyl)-5-hydroxy-4H-1,2,4-triazol-4-yl)benzoyl)piperazin-1-yl)methyl)piperidine-1-carbonyl)piperidin-1-yl)-2-ethoxyphenyl)amino)-5-methyl-11-(methylsulfonyl)-5,11-dihydro-6H-benzo[e]pyrimido[5,4-b][1,4]diazepin-6-one]	0.1 to 1	0.1 to 1	0.1 to 1	–
CCOc1cc(N2CCC(C(=O)NCCOCCOCCOCCOc3ccc(Nc4cc(-n5nc(C(F)(F)F)c6c5CC(C)(C)CC6=O)ccc4C(N)=O)cc3)CC2)ccc1Nc1ncc2c(n1)N(C)c1ccccc1C(=O)N2C [Compound 132, N-(2-(2-(2-(2-(4-((2-carbamoyl-5-(6,6-dimethyl-4-oxo-3-(trifluoromethyl)-4,5,6,7-tetrahydro-1H-indazol-1-yl)phenyl)amino)phenoxy)ethoxy)ethoxy)ethoxy)ethyl)-1-(4-((5,11-dimethyl-6-oxo-6,11-dihydro-5H-benzo[e]pyrimido[5,4-b][1,4]diazepin-2-yl)amino)-3-ethoxyphenyl)piperidine-4-carboxamide]	> 1	> 1	0.1 to 1	–
CCOc1cc(N2CCC(C(=O)N3CCC(CN4CCC(COc5ccc(Nc6cc(-n7nc(C(F)(F)F)c8c7CC(C)(C)CC8=O)ccc6C(N)=O)cc5)CC4)CC3)CC2)ccc1Nc1ncc2c(n1)N(C)c1ccccc1C(=O)N2C [Compound 129, 4-(6,6-dimethyl-4-oxo-3-(trifluoromethyl)-4,5,6,7-tetrahydro-1H-indazol-1-yl)-2-((4-((1-((1-(1-(4-((5,11-dimethyl-6-oxo-6,11-dihydro-5H-benzo[e]pyrimido[5,4-b][1,4]diazepin-2-yl)amino)-3-ethoxyphenyl)piperidine-4-carbonyl)piperidin-4-yl)methyl)piperidin-4-yl)methoxy)phenyl)amino)benzamide]	> 1	0.1 to 1	0.1 to 1	–
CCOc1cc(N2CCC(C(=O)NCCOCCOCCOc3ccc(-n4c(O)nnc4-c4cc(CC)c(O)cc4O)cc3)CC2)ccc1Nc1ncc2c(n1)N(C)c1ccccc1C(=O)N2C [Compound 017, 1-(4-((5,11-dimethyl-6-oxo-6,11-dihydro-5H-benzo[e]pyrimido[5,4-b][1,4]diazepin-2-yl)amino)-3-ethoxyphenyl)-N-(2-(2-(2-(4-(3-(5-ethyl-2,4-dihydroxyphenyl)-5-hydroxy-4H-1,2,4-triazol-4-yl)phenoxy)ethoxy)ethoxy)ethyl)piperidine-4-carboxamide]	> 1	0.1 to 1	< 0.1	–
CCOc1cc(N2CCC(C(=O)NCC3CCN(C(=O)C4CCN(Cc5ccc(-n6c(O)nnc6-c6cc(CC)c(O)cc6O)cc5)CC4)CC3)CC2)ccc1Nc1ncc2c(n1)N(C)c1ccccc1C(=O)N2C [Compound 011, 1-(4-((5,11-dimethyl-6-oxo-6,11-dihydro-5H-benzo[e]pyrimido[5,4-b][1,4]diazepin-2-yl)amino)-3-ethoxyphenyl)-N-((1-(1-(4-(3-(5-ethyl-2,4-dihydroxyphenyl)-5-hydroxy-4H-1,2,4-triazol-4-yl)benzyl)piperidine-4-carbonyl)piperidin-4-yl)methyl)piperidine-4-carboxamide]	> 1	0.1 to 1	0.1 to 1	–
CCOc1cc(N2CCC(C(=O)NCCOCCOc3ccc(-n4c(O)nnc4-c4cc(C(C)C)c(O)cc4O)cc3)CC2)ccc1Nc1ncc2c(n1)N(C)c1ccccc1C(=O)N2C [Compound 015, N-(2-(2-(4-(3-(2,4-dihydroxy-5-isopropylphenyl)-5-hydroxy-4H-1,2,4-triazol-4-yl)phenoxy)ethoxy)ethyl)-1-(4-((5,11-dimethyl-6-oxo-6,11-dihydro-5H-benzo[e]pyrimido[5,4-b][1,4]diazepin-2-yl)amino)-3-ethoxyphenyl)piperidine-4-carboxamide]	0.1 to 1	0.1 to 1	< 0.1	–
CCOc1cc(N2CCC(C(=O)NCC3CCN(C(=O)C4CCN(Cc5ccc(-n6c(O)nnc6-c6cc(CC)c(O)cc6O)cc5)CC4)C3)CC2)ccc1Nc1ncc2c(n1)N(C)c1ccccc1C(=O)N2C (stereo not shown) [Compound 012, 1-(4-((5,11-dimethyl-6-oxo-6,11-dihydro-5H-benzo[e]pyrimido[5,4-b][1,4]diazepin-2-yl)amino)-3-ethoxyphenyl)-N-((1-(1-(4-(3-(5-ethyl-2,4-dihydroxyphenyl)-5-hydroxy-4H-1,2,4-triazol-4-yl)benzyl)piperidine-4-carbonyl)pyrrolidin-3-yl)methyl)piperidine-4-carboxamide]	> 1	0.1 to 1	0.1 to 1	–
CCOc1cc(N2CCC(C(=O)N3CCC(N4CCN(C(=O)O[C@H]5CC[C@H](Nc6cc(-n7nc(C(F)(F)F)c8c7CC(C)(C)CC8=O)ccc6C(N)=O)CC5)CC4)CC3)CC2)ccc1Nc1ncc2c(n1)N(C)c1ccccc1C(=O)N2C [Compound 125, (1R,4R)-4-((2-carbamoyl-5-(6,6-dimethyl-4-oxo-3-(trifluoromethyl)-4,5,6,7-tetrahydro-1H-indazol-1-yl)phenyl)amino)cyclohexyl 4-(1-(1-(4-((5,11-dimethyl-6-oxo-6,11-dihydro-5H-benzo[e]pyrimido[5,4-b][1,4]diazepin-2-yl)amino)-3-ethoxyphenyl)piperidine-4-carbonyl)piperidin-4-yl)piperazine-1-carboxylate]	> 1	> 1	> 1	–
CCOc1cc(N2CCC(C(=O)N3CCC(CN4CCN(CCOc5ccc(Nc6cc(-n7nc(C(F)(F)F)c8c7CC(C)(C)CC8=O)ccc6C(N)=O)cc5)CC4)CC3)CC2)ccc1Nc1ncc2c(n1)N(C)c1ccccc1C(=O)N2C [Compound 130, 4-(6,6-dimethyl-4-oxo-3-(trifluoromethyl)-4,5,6,7-tetrahydro-1H-indazol-1-yl)-2-((4-(2-(4-((1-(1-(4-((5,11-dimethyl-6-oxo-6,11-dihydro-5H-benzo[e]pyrimido[5,4-b][1,4]diazepin-2-yl)amino)-3-ethoxyphenyl)piperidine-4-carbonyl)piperidin-4-yl)methyl)piperazin-1-yl)ethoxy)phenyl)amino)benzamide]	> 1	> 1	0.1 to 1	–
CCOc1cc(N2CCC(C(=O)NCCOCCOCCOc3ccc(-n4c(O)nnc4-c4cc(C(C)C)c(O)cc4O)cc3)CC2)ccc1Nc1ncc2c(n1)N(C)c1ccccc1C(=O)N2C [Compound 016, N-(2-(2-(2-(4-(3-(2,4-dihydroxy-5-isopropylphenyl)-5-hydroxy-4H-1,2,4-triazol-4-yl)phenoxy)ethoxy)ethoxy)ethyl)-1-(4-((5,11-dimethyl-6-oxo-6,11-dihydro-5H-benzo[e]pyrimido[5,4-b][1,4]diazepin-2-yl)amino)-3-ethoxyphenyl)piperidine-4-carboxamide]	0.1 to 1	0.1 to 1	< 0.1	–
CCOc1cc(N2CCC(C(=O)NCCc3ccc(-n4c(O)nnc4-c4cc(C(C)C)c(O)cc4O)cc3)CC2)ccc1Nc1ncc2c(n1)N(C)c1ccccc1C(=O)N2C [Compound 008, N-(4-(3-(2,4-dihydroxy-5-isopropylphenyl)-5-hydroxy-4H-1,2,4-triazol-4-yl)phenethyl)-1-(4-((5,11-dimethyl-6-oxo-6,11-dihydro-5H-benzo[e]pyrimido[5,4-b][1,4]diazepin-2-yl)amino)-3-ethoxyphenyl)piperidine-4-carboxamide]	0.1 to 1	0.1 to 1	< 0.1	–
